Assay results: the supplement of paper PMC5908809

Columns and labels:
[1] = tested on: normal NK cells expanded with K562-aAPC; assay: drug sensitivity score (DSS) (DSS units); higher = more sensitive; extreme values may be limits of the assay; conditions: 72 h; IL-2 2.5 ng/mL
Description: (§1)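 Drug sensitivity and resistance testing on K562-aAPC-expanded normal NK cells: 5 concentrations (10-fold steps over a 10,000-fold range), 72 h at 37 °C, viability by CellTiter-Glo normalised to DMSO and benzethonium chloride controls; DSS from the fitted curve.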

[2] = tested on: normal NK cells expanded with K562-aAPC; assay: percent inhibition of viability; higher = more inhibition; conditions: 72 h, IL-2 2.5 ng/mL
Description: as §1

[3] = tested on: normal primary NK cells, pool 2 (3 donors) (IL-2 2.5 ng/mL); assay: drug sensitivity score (DSS) (DSS units); higher = more sensitive; extreme values may be limits of the assay; conditions: 72 h
NKL (IL-2 2.5 ng/mL) [4] = assay: as above; conditions: 72 h
NK-92 (IL-2 2.5 ng/mL) [5] = assay: as above; conditions: 72 h
[6] = tested on: normal primary NK cells, pool 3 (3 donors) (IL-2 2.5 ng/mL); assay: as above; conditions: 72 h
YT (IL-2 2.5 ng/mL) [7] = assay: as above; conditions: 72 h
NK-YS (IL-2 2.5 ng/mL) [8] = assay: as above; conditions: 72 h
[9] = tested on: normal primary NK cells, pool 1 (3 donors) (IL-2 2.5 ng/mL); assay: as above; conditions: 72 h
IMC-1 (IL-2 20 ng/mL) [10] = assay: as above; conditions: 72 h
DERL-7 (IL-2 2.5 ng/mL) [11] = assay: as above; conditions: 72 h
[12] = tested on: normal primary NK cells, pool 1 (3 donors), resting (IL-2 0 ng/mL); assay: as above; conditions: 72 h
KHYG-1 (IL-2 2.5 ng/mL) [13] = assay: as above; conditions: 72 h
KAI3 (IL-2 2.5 ng/mL) [14] = assay: as above; conditions: 72 h
SNK-6 (IL-2 2.5 ng/mL) [15] = assay: as above; conditions: 72 h
[16] = tested on: normal primary NK cells, pool 2 (3 donors) (IL-2 2.5 ng/mL); assay: percent inhibition of viability; higher = more inhibition; conditions: 72 h
NKL (IL-2 2.5 ng/mL) [17] = assay: as above; conditions: 72 h
NK-92 (IL-2 2.5 ng/mL) [18] = assay: as above; conditions: 72 h
[19] = tested on: normal primary NK cells, pool 3 (3 donors) (IL-2 2.5 ng/mL); assay: as above; conditions: 72 h
YT (IL-2 2.5 ng/mL) [20] = assay: as above; conditions: 72 h
NK-YS (IL-2 2.5 ng/mL) [21] = assay: as above; conditions: 72 h
[22] = tested on: normal primary NK cells, pool 1 (3 donors) (IL-2 2.5 ng/mL); assay: as above; conditions: 72 h
IMC-1 (IL-2 20 ng/mL) [23] = assay: as above; conditions: 72 h
DERL-7 (IL-2 2.5 ng/mL) [24] = assay: as above; conditions: 72 h
[25] = tested on: normal primary NK cells, pool 1 (3 donors), resting (IL-2 0 ng/mL); assay: as above; conditions: 72 h
KHYG-1 (IL-2 2.5 ng/mL) [26] = assay: as above; conditions: 72 h
KAI3 (IL-2 2.5 ng/mL) [27] = assay: as above; conditions: 72 h
SNK-6 (IL-2 2.5 ng/mL) [28] = assay: as above; conditions: 72 h

CN(c1ncccc1CNc1nc(Nc2ccc3c(c2)CC(=O)N3)ncc1C(F)(F)F)S(C)(=O)=O (max concentration tested 10000 nM)
Conditions	drug sensitivity score
DERL-7 (IL-2 2.5 ng/mL) [11]	8
IMC-1 (IL-2 20 ng/mL) [10]	5.8
KAI3 (IL-2 2.5 ng/mL) [14]	7.77
KHYG-1 (IL-2 2.5 ng/mL) [13]	10.8
NK-92 (IL-2 2.5 ng/mL) [5]	5.49
NK-YS (IL-2 2.5 ng/mL) [8]	9.57
NKL (IL-2 2.5 ng/mL) [4]	8.95
SNK-6 (IL-2 2.5 ng/mL) [15]	3.56
YT (IL-2 2.5 ng/mL) [7]	9.01
[1]	6.5
[3]	4.9
[6]	4.64
[9]	7.02
[12]	3.17

percent inhibition of viability [%]
Conditions	1 nM	10 nM	100 nM	1000 nM	10000 nM
DERL-7 (IL-2 2.5 ng/mL) [24]	-3.04	-1.94	-4.92	14.9	99.9
IMC-1 (IL-2 20 ng/mL) [23]	-1.02	-1.57	1.51	2.71	97.8
KAI3 (IL-2 2.5 ng/mL) [27]	-4.38	-3.17	-1.99	15.1	94.9
KHYG-1 (IL-2 2.5 ng/mL) [26]	1.46	-1.82	-1.38	42.5	95.7
NK-92 (IL-2 2.5 ng/mL) [18]	-15.3	-22	-13	1.77	94.6
NK-YS (IL-2 2.5 ng/mL) [21]	1.14	-3.29	-8.54	31.5	92.8
NKL (IL-2 2.5 ng/mL) [17]	-0.23	-12.4	-5.82	24.1	95
SNK-6 (IL-2 2.5 ng/mL) [28]	8.22	-2.6	-15.8	2.42	59.8
YT (IL-2 2.5 ng/mL) [20]	2.65	-2.39	-3.31	24.6	95.2
[2]	-0.87	-5.24	-0.38	6.43	99.8
[16]	-12.4	-9.66	-11.1	-4.87	94.8
[19]	-12.7	-6.19	-9.86	-12.6	97.7
[22]	-2.69	-13.7	-10.8	10	97.2
[25]	-20.5	-23.2	-40	-70.9	88.9
